Experiments:
E. coli (Juhl) [1] = experiment: serial dilution in synthetic medium in test tubes, MIC and F.I.C. index (Table II); format: cell-based; conditions: for MIC ppm Antibiotic: antibiotic alone
Procedure: The halogenated peptides alone, the antibiotic alone or mixtures of the halogenated peptides and selected antibiotics are prepared in sterile concentrated aqueous solutions at the desired ratios. Serial dilutions are made to give a range of concentrations of the test substances. Samples of the dilutions are mixed with an appropriate sterile synthetic medium in test tubes. The tubes are then inoculated with an appropriate test organism and incubated at 35°-37° C. for 16-20 hours. Minimum inhibitory concentrations, i.e., that concentration which inhibits visible growth, are read and the fractional inhibitory concentration indices (F.I.C.) are calculated. In all instances, E. coli (Juhl) was used as the infecting microorganism.

E. coli (Juhl) [2] = experiment: mouse protection test, CD50 (Table III); format: in vivo
Procedure: (§1) Charles River mice, weighing approximately 20 g. each, are infected intraperitoneally with 10-100 times the LD of the infecting organism. At predetermined intervals post-infection, e.g., 1 and 5 hours, mice are dosed subcutaneously with graded doses of the halogenated peptide, antibiotic and combination thereof. The number of mice surviving each treatment for 7 days post-infection is observed and the CD50 is calculated. The fractional inhibitory concentration (F.I.C.) for each combination is calculated in the usual manner.
(§2) In this table, the following infecting microorganisms were used:
(§3) The infecting organisms are listed by the above code; the compounds are listed by their Example number. In all instances, the dipeptide and D-cycloserine were tested at a ratio of 10:1. The CD50 combination column lists only the amount of peptide present; the D-cycloserine amount is 10% of the listed amount.

S. aureus (Smith) = experiment: mouse protection test, CD50 (Table III); format: in vivo; conditions: for F.I.C. Index / CD50 (mg/kg) Combination: S. aureus (Smith) in mice, dipeptide:D-cycloserine 10:1; for CD50 (mg/kg) Combination: amount of peptide only listed, D-cycloserine is 10% of it; for CD50 (mg/kg) Peptide: mice infected i.p. with S. aureus (Smith), dosed subcutaneously, 7 days survival, peptide alone
Procedure: as §1, §2, §3

[3] = combination with D-cycloserine, ratio Pep/Antib. 1:8
[4] = E. coli (Juhl), 35-37° C., 16-20 hours

Compound	F.I.C. Index (S. aureus (Smith))	CD50 (mg/kg) Combination (S. aureus (Smith))	CD50 (mg/kg) Peptide (S. aureus (Smith))	further results
N[C@@H](CCC(=O)O)C(=O)N[C@H](CF)C(=O)O [Example 9, L-Glu-βF-D-Ala]	0.30	7.6 mg/kg	28.5 mg/kg	F.I.C. Index (E. coli (Juhl) [1]; [3]): 0.50; MIC ppm Pep/Antib., antibiotic part (E. coli (Juhl) [1]; [3]): 3.1 ppm; MIC ppm Pep/Antib., peptide part (E. coli (Juhl) [1]; [3]): 0.39 ppm; MIC ppm Peptide (E. coli (Juhl) [1]; peptide alone, E. coli (Juhl), 35-37° C., 16-20 hours): > 800 ppm; F.I.C. Index (E. coli (Juhl) [2]; E. coli (Juhl) in mice, dipeptide:D-cycloserine 10:1): 0.96; CD50 (mg/kg) Combination (E. coli (Juhl) [2]; E. coli (Juhl) in mice, dipeptide:D-cycloserine 10:1, amount of peptide only listed, D-cycloserine is 10% of it): 72 mg/kg; CD50 (mg/kg) Peptide (E. coli (Juhl) [2]; mice infected i.p. with E. coli (Juhl), dosed subcutaneously, 7 days survival, peptide alone): 81 mg/kg
NCC(=O)N[C@H](CF)C(=O)O [Example 10, Gly-βF-D-Ala]	0.27	4.7 mg/kg	19 mg/kg	–
CNCC(=O)N[C@H](CF)C(=O)O [Example 11, Sar-βF-D-Ala]	0.24	6.2 mg/kg	29 mg/kg	–
NCC(=O)N[C@H](CCl)C(=O)O [Example 12, Gly-βCl-D-Ala]	0.30	17.4 mg/kg	155 mg/kg	–
COC(=O)[C@@H](CF)NC(=O)[C@H](C)N.Cl [Example 15, L-Ala-βF-D-Ala-OMe.HCl]	0.32	5.5 mg/kg	18 mg/kg	–
CCC(N)C(=O)N[C@H](CF)C(=O)O (stereo partly drawn) [Example 17, L-αNH2 -But-βF-D-Ala]	0.20	2.6 mg/kg	13.7 mg/kg	–
CCCCCCC(N)C(=O)N[C@H](CF)C(=O)O (stereo partly drawn) [Example 20, D,L-α-amino-octanoyl-βF-D-Ala]	0.10	8.6 mg/kg	75.9 mg/kg	–
CC1(C)S[C@@H]2[C@H](NC(=O)C(C(=O)O)c3ccccc3)C(=O)N2[C@H]1C(=O)O (stereo partly drawn) [carbencillin, reference compound]	–	–	–	MIC ppm Antibiotic (E. coli (Juhl) [1]; [4]): 6.2 ppm
CC(=O)OCC1=C(C(=O)O)N2C(=O)[C@@H](NC(=O)Cc3cccs3)[C@H]2SC1 [cephalothin, reference compound]	–	–	–	MIC ppm Antibiotic (E. coli (Juhl) [1]; [4]): 6.2 ppm

— US4264590A, “Antibacterial peptide” (Abbott Laboratories, priority 1980, dated 1981)
